Measured values: patent US6737383B1, “Herbicidal oxadiazolidines” (priority 1999, dated 2004)

Experiments:
Settings in all cases: Preemergence
wild oat = test: Test B pre/postemergence wild oat; type: in vivo, Avena fatua
Excerpt: (§1) Seeds of bedstraw (Galium aparine), blackgrass (Alopecurus myosuroides), surinam grass (Brachiaria decumbens), cocklebur (Xanthium strumarium), corn (Zea mays), crabgrass (Digitaria sanguinalis), giant foxtail (Setaria faberii), morningglory (Ipomoea hederacea), pigweed (Amaranthus retroflexus), rape (Brassica napus), soybean (Glycine max), sugar beet (Beta vulgaris), velvetleaf (Abutilon theophrasti), wheat (Triticum aestivum), wild oat (Avena fatua) and purple nutsedge (Cyperus rotundus) tubers were planted and treated preemnergence with test chemicals formulated in a non-phytotoxic solvent mixture which included a surfactant.
(§2) At the same time, these crop and weed species were also treated with postemergence applications of test chemicals formulated in the same manner. Plants ranged in height from 2 to 18 cm (1- to 4-leaf stage) for postemergence treatments. Plant species in the flood test consisted of rice (Oryza sativa), smallflower flatsedge (Cyperus difformis), duck salad (Heteranthera limosa) and bamyardgrass (Echinochloa crus-galli) grown to the 2-leaf stage for testing. Treated plants and controls were maintained in a greenhouse for twelve to sixteen days, after which all species were compared to controls and visually evaluated. Plant response ratings, summarized in Table B, are based on a scale of 0 to 10 where 0 is no effect and 10 is complete control. A dash (−) response means no test result.

bedstraw = test: Test B pre/postemergence bedstraw; type: in vivo, Galium aparine
Excerpt: as §1, §2

crabgrass = test: Test B pre/postemergence crabgrass; type: in vivo, Digitaria sanguinalis
Excerpt: as §1, §2

velvetleaf = test: Test B pre/postemergence velvetleaf; type: in vivo, Abutilon theophrasti
Excerpt: as §1, §2

purple nutsedge = test: Test B pre/postemergence purple nutsedge; type: in vivo, Cyperus rotundus
Excerpt: as §1, §2

wheat = test: Test B pre/postemergence wheat; type: in vivo, Triticum aestivum
Excerpt: as §1, §2

corn = test: Test B pre/postemergence corn; type: in vivo, Zea mays
Excerpt: as §1, §2

cocklebur = test: Test B pre/postemergence cocklebur; type: in vivo, Xanthium strumarium
Excerpt: as §1, §2

soybean = test: Test B pre/postemergence soybean; type: in vivo, Glycine max
Excerpt: as §1, §2

surinam grass = test: Test B pre/postemergence surinam grass; type: in vivo, Brachiaria decumbens
Excerpt: as §1, §2

giant foxtail = test: Test B pre/postemergence giant foxtail; type: in vivo, Setaria faberii
Excerpt: as §1, §2

sugar beet = test: Test B pre/postemergence sugar beet; type: in vivo, Beta vulgaris
Excerpt: as §1, §2

morningglory = test: Test B pre/postemergence morningglory; type: in vivo, Ipomoea hederacea
Excerpt: as §1, §2

rape = test: Test B pre/postemergence rape; type: in vivo, Brassica napus
Excerpt: as §1, §2

blackgrass = test: Test B pre/postemergence blackgrass; type: in vivo, Alopecurus myosuroides
Excerpt: as §1, §2

pigweed = test: Test B pre/postemergence pigweed; type: in vivo, Amaranthus retroflexus
Excerpt: as §1, §2

[1] = Rate 62 g/ha, scale of 0 to 10 where 0 is no effect and 10 is complete control
[2] = Rate 125 g/ha, scale of 0 to 10 where 0 is no effect and 10 is complete control
[3] = Rate 250 g/ha, scale 0 (no effect) to 10 (complete control)
[4] = Rate 500 g/ha, scale 0 to 10 (0 no effect, 10 complete control)

CC(C)N(C(=O)n1oc(=O)n(C(C)C2=NOCC2)c1=O)c1ccc(F)cc1F (racemic) [Compound 730]
Wild oats plant response rating (wild oat; [1]): 0
Plant response rating, Wild oats (wild oat; [2]): 4
Wild oats plant response rating (wild oat; [3]): 7
Wild oats plant response rating (wild oat; [4]): 9
Bedstraw plant response rating (bedstraw; [1]): 0
Plant response rating, Bedstraw (bedstraw; [2]): 0
Bedstraw plant response rating (bedstraw; [3]): 0
Bedstraw plant response rating (bedstraw; [4]): 4
Crabgrass plant response rating (crabgrass; [1]): 9
Plant response rating, Crabgrass (crabgrass; [2]): 9
Crabgrass plant response rating (crabgrass; [3]): 9
Crabgrass plant response rating (crabgrass; [4]): 10
Velvetleaf plant response rating (velvetleaf; [1]): 0
Plant response rating, Velvetleaf (velvetleaf; [2]): 2
Velvetleaf plant response rating (velvetleaf; [3]): 6
Velvetleaf plant response rating (velvetleaf; [4]): 6
Nutsedge plant response rating (purple nutsedge; [1]): 0
Plant response rating, Nutsedge (purple nutsedge; [2]): 0
Nutsedge plant response rating (purple nutsedge; [3]): 3
Nutsedge plant response rating (purple nutsedge; [4]): 3
Wheat plant response rating (wheat; [1]): 0
Plant response rating, Wheat (wheat; [2]): 0
Wheat plant response rating (wheat; [3]): 0
Wheat plant response rating (wheat; [4]): 0
Corn plant response rating (corn; [1]): 0
Plant response rating, Corn (corn; [2]): 3
Corn plant response rating (corn; [3]): 4
Corn plant response rating (corn; [4]): 9
Cocklebur plant response rating (cocklebur; [1]): 0
Plant response rating, Cocklebur (cocklebur; [2]): 0
Cocklebur plant response rating (cocklebur; [3]): 0
Cocklebur plant response rating (cocklebur; [4]): 0
Soybean plant response rating (soybean; [1]): 0
Plant response rating, Soybean (soybean; [2]): 0
Soybean plant response rating (soybean; [3]): 2
Soybean plant response rating (soybean; [4]): 3
B. signalgrass plant response rating (surinam grass; [1]): 0
Plant response rating, B. signalgrass (surinam grass; [2]): 0
B. signalgrass plant response rating (surinam grass; [3]): 7
B. signalgrass plant response rating (surinam grass; [4]): 9
Giant foxtail plant response rating (giant foxtail; [1]): 10
Plant response rating, Giant foxtail (giant foxtail; [2]): 10
Giant foxtail plant response rating (giant foxtail; [3]): 10
Giant foxtail plant response rating (giant foxtail; [4]): 10
Sugarbeets plant response rating (sugar beet; [1]): 0
Plant response rating, Sugarbeets (sugar beet; [2]): 2
Sugarbeets plant response rating (sugar beet; [3]): 4
Sugarbeets plant response rating (sugar beet; [4]): 7
Morningglory plant response rating (morningglory; [1]): 0
Plant response rating, Morningglory (morningglory; [2]): 0
Morningglory plant response rating (morningglory; [3]): 0
Morningglory plant response rating (morningglory; [4]): 2
Rape plant response rating (rape; [1]): 0
Plant response rating, Rape (rape; [2]): 0
Rape plant response rating (rape; [3]): 2
Rape plant response rating (rape; [4]): 7
Blackgrass plant response rating (blackgrass; [1]): 6
Plant response rating, Blackgrass (blackgrass; [2]): 9
Blackgrass plant response rating (blackgrass; [3]): 10
Blackgrass plant response rating (blackgrass; [4]): 10
Redroot pigweed plant response rating (pigweed; [1]): 6
Plant response rating, Redroot pigweed (pigweed; [2]): 9
Redroot pigweed plant response rating (pigweed; [3]): 10
Redroot pigweed plant response rating (pigweed; [4]): 10
